The text below walks through data of patent publication US20080107613A1, “Pharmaceutical composition comprising a macrolide t-cell immunomodulator and anti-photoaging agent” (priority 2004, published 2008).

For experiment [1], the system named is UVB-induced apoptosis in mouse skin. Particulars: hairless mice pretreated with 1% pimecrolimus cream or 0.1% tacrolimus ointment; UVB irradiation; versus untreated mice; cited from earlier work.
Experiment [2] deals with DNA damage induced by UV light in mouse skin (epidermal thymine dimers). Conditions: hairless mice pretreated with 1% pimecrolimus cream or 0.1% tacrolimus ointment; measured one hour after 1 J/cm^2 UVB irradiation; cited from earlier work.
Experiment [3] relates to pyrimidine/thymine dimers in DNA extracted from epidermis. The experiment can be described thus: Thymine dimer levels in human epidermis after simulated solar radiation (immunoslot blot, chemoluminescence image analysis). It counts as in vivo. Particulars: skin sites of subjects with or without atopic dermatitis pretreated with pimecrolimus, 1 hour post-irradiation. The method, then:
Similar results are obtained with skin from subjects receiving pimecrolimus, either with or without skin disease (atopic dermatitis), exposed to simulated solar radiation, when DNA is extracted from epidermis biopsied 1 hour and 24 hours after irradiation, as measured by pyrimidine dimer visualization by immunoslot blot and quantification by chemoluminescence image analysis: at 1 hour post-irradiation thymine dimer levels are clearly lower as compared to untreated control, indicative of reduced dimer production in skin sites pretreated with pimecrolimus.

For `C=CC[C@@H]1/C=C(\C)C[C@H](C)C[C@H](OC)[C@H]2O[C@@](O)(C(=O)C(=O)N3CCCC[C@H]3C(=O)O[C@H](/C(C)=C/[C@@H]3CC[C@@H](O)[C@H](OC)C3)[C@H](C)[C@@H](O)CC1=O)[C@H](C)C[C@@H]2OC` [tacrolimus], the UVB-induced apoptosis result in experiment [1] was “less pronounced”. Besides, in experiment [2], the “decrease of amount of epidermal thymine dimers as compared to untreated mice” value is reported as 84%.
In the case of “{[1E-(1R,3R,4S)]1R,9S,12S, 13R,14S,17R,18E,21S,23S,24R,25S,27R}-12-[2-(4-chloro-3-methoxycyclohexyl)-1-methylvinyl]-17-ethyl-1,14-dihydroxy-23,25-dimethoxy-13,19,21,27-tetramethyl-11,28,dioxa-4-azatricyclo [22.3.1.0(4,9)]octacos-18-ene-2,3,10,16-tetraone [pimecrolimus]”, the UVB-induced apoptosis result in experiment [1] was “less pronounced”. Also, in experiment [2], the “decrease of amount of epidermal thymine dimers as compared to untreated mice” value is reported as 89%. Further, the “thymine dimer levels as compared to untreated control” value in experiment [3] is “clearly lower”.
